Results as given in US6194173A, “Binding proteins for phosphoinositides, GRP1 or general receptor 1 for phophoinositide” (priority 1999, dated 2001).
Each block holds one molecule with its values, some of them ahead of it.

Tests used:
[1] = molecular target: T1, GSTPH(GRP) (Mus musculus, UniProt O08967); assay: Competition of [32P]PI(3,4,5)P3 binding to GST-PH by inositol phosphate head groups; design: species or system murine; conditions: for inhibition of [^32 P]PI(3,4,5)P3 binding to GST-PH(GRP): 100 μM competitor; for binding of inositol phosphate to GRP polypeptides: statement in the description
T1 construct: residues 239 to 399 (PH domain); made in house; host or cells: bacteria
T1 sequence (O08967 239-399): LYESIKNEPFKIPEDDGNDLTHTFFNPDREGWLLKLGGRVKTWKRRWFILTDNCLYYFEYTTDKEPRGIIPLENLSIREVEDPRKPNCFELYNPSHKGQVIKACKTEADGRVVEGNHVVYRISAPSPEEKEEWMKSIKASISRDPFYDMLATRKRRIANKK
Text: (§1) To generate the GST fusion proteins, PCR reactions using the primers: […] (SEQ ID NO:9) and […] (SEQ ID NO:10) for the GST-N construct, […] (SEQ ID NO:11) and […] (SEQ ID NO:12) for the GST-Sec7 construct, […] (SEQ ID NO:13) and […] (SEQ ID NO:14) for the GSTPH construct, and […] (SEQ ID NO:15) and […] (SEQ ID NO:16) for the GSTGRP constructs. The sequences of the PCR products were verified, and cloned into pGEX-5X-3 in the EcoRI and Xba 1 sites. The bacteria were lysed and the fusion proteins were bound to gluthathione agarose according to standard procedures. Elution was effected by incubation of the beads with one volume 20 mM Hepes, 100 mM NaCl, 1 mM dithiotreitol (H buffer) supplemented with 10 mM gluthatione and 1% sodium cholate, and the eluate was dialyzed extensively against H buffer. For binding assays, protein was bound to nitrocellulose using a BIO-RAD BIO-DOT™ apparatus, using 150 pmol per well for binding assays and 7.5 pmol for competition assays. The nitrocellulose was washed in assay buffer, and 3 mm circles of the filters containing the protein were cut out and incubated in […] assay buffer with the relevant lipids and competitors for 2 h under constant agitation. The filters were washed four times with 1 mL assay buffer and counted in a scintillation counter.
The specificity of the GRP PH domain for binding [^32 P]PI(3,4,5,)P3 was also examined with respect to competition by the inositol phosphate head groups of the phosphoinositides. […] More specifically, 25,000 cpm of [^32 P]PI(3,4,5)P3 was incubated with varying concentrations of inositol 1 ,3,4,5P4 and bound radioactivity determined. The amount of radioactivity bound was calculated as percent of that bound in the absence of competitor. The values are means of quadruplicate measurements, and the error bars are standard deviations. The lack of inhibition by the latter two phosphoinositides is particularly striking since they carry the same charge as the inhibitor […] The concentration of inositol 1,3,4,5-P4 that inhibited binding of [^32 p]PI(3,4,5,)P3 half maximally was about 3-6 μM (FIG. 5A). Taken together, the data in FIGS. 4 and 5 indicate extraordinary specificity of the GRP PH domain for PI(3,4,5)P3. […] The binding to GST fusion proteins containing amino acids 462-569 of murine Sos or amino acid 13-115 of murine IRS-1 was assayed using 150 pmoles of protein bound to the filters. Competition of binding to 7.5 pmoles of GST-PH was measured in the presence of 100 μM of the competitors. The values were calculated as in (A), and are means of quadruplicate measurements and the error bars represent standard deviations.

[2] = molecular target: T2, GRP (Mus musculus, UniProt O08967); assay: Inhibition by inositol phosphates of PtdIns(3,4,5)P3-stimulated GRP-mediated ARF1 exchange; assay type: biochemical; conditions: 100 μM inositol phosphate, 0.05% cholate and 0.05% CHAPS
T2 construct: GST (N, cleaved yes); made in house; host or cells: GRP from pGEX-4T; ARF1 from baculovirus-infected Sf-9 cells
T2 sequence (O08967 1-399): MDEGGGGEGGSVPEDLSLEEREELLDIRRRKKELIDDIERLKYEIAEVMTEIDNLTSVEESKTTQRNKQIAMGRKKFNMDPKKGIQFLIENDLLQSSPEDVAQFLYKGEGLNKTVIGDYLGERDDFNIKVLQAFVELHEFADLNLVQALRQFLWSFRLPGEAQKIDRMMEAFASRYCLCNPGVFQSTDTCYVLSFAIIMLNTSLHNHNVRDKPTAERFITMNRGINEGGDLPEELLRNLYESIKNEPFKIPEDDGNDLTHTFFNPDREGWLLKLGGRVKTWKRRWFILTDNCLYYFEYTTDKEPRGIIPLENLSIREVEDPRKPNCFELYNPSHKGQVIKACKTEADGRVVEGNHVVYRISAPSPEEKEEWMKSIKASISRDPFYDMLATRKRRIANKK

[3] = Binding of [32P]PI(3,4,5)P3 by GST fusion proteins spotted on nitrocellulose; conditions: 150 pmol protein on nitrocellulose; relative to GST
Procedure: The 3'-phosphatidylinositol probes labeled at the 3' position were generated using GST-p110 PI3-kinase purified from recombinant bacculovirus infected Sf 9 cells, using either purified phosphatidylinositol phosphates or crude brain lipid. Briefly, 20 mg phospholipid in chloroform was dried under N2 and resuspended in […] of buffer containing Tris-HCl pH 7.4, EDTA 1 mM and incubated in […] phopsphorylation media containing 20 mM Tris-HCl pH 7.4, 100 mM NaCl, 10 mM MgCl2, 0.5 mM EGTA. 0.2 mM adenosine, GST-p110 and 5-10 mCi [g-^32 P]ATP (5 Ci/umol). The reaction was carried out for 2 h at room temperature, quenched by addition of 0.2 ml of 1M HCl, followed by 0.5 ml of chloroform:methanol (1:1). The organic phase containing phospholipids was washed 4 times with 0.4 ml of methanol:HCl (1: 1) and stored at -70° C. until use. Just before use, the lipid was dried under a stream of nitrogen with phosphatidyl serine corresponding to a final concentration of 20 mg/ml. The identities of the PI3-P, PI3,4-P2 and PI3,4,5-P3 were confirmed by TLC and HPLC analysis.
as §1
In order to determine whether PI(3,4,5)P3 binding could be localized to specific sequences within the GRP structure, GST fusion proteins containing either residues 239 to 399 (PH domain), residues 52 to 260 (Sec7 domain), or residues 5 to 71, full length GRP residues 5-399 were expressed in bacteria and purified on glutathione-conjugated beads. […] 150 pmol of the proteins were spotted on nitrocellulose filters, incubated with [^32 P]PI(3,4,5)P3 and the amount of bound lipid was determined as described. The values are the means of the quadruplicate determinations, and the error bars are the standard deviations. […] Nitrocellulose filters with GST-PH were incubated with 25,000 cpm of each of the phospholipids and the amount of bound lipid determined as described above. The values are the means of quadruplicate determinations and the error bars are the standard deviations. […] Although previous work has shown that PH domain from PLCδ (Lemmon et al. (1995) supra) and various other proteins bind 4,5-polyphosphoinositide, none have been reported to preferentially associate with a 3-polyphosphoinositide. […]

[4] = system: ARF1; assay: ARF1 guanine nucleotide exchange ([35S]GTPγS binding); assay type: biochemical; conditions: [^35 S]GTPγS binding to immunoprecipitated ARF1

Molecule: O=P(O)(O)O[C@H]1[C@H](OP(=O)(O)O)[C@@H](OP(=O)(O)O)[C@H](O)[C@@H](O)[C@H]1OP(=O)(O)O (relative stereo) [Ins(1,2,5,6)P4, inositol 1,2,5,6-P4]
- inhibition of [^32 P]PI(3,4,5)P3 binding to GST-PH(GRP) [1]: little or no effect
- binding of inositol phosphate to GRP polypeptides [1]: not
- inhibition of PtdIns(3,4,5)P3-stimulated GRP-mediated ARF1 guanine nucleotide exchange [2]: failed to inhibit

B1: IRS-1PH domain: GST fusion protein containing amino acid 13-115 of murine IRS-1 (protein, UniProt P35569 13-115, looked up, fragment)
chain: VRKVGYLRKPKSMHKRFFVLRAASEAGGPARLEYYENEKKWRHKSSAPKRSIPLESCFNINKRADSKNKHLVALYTRDEHFAIAADSEAEQDSWYQALLQLHN
modifications: PH domain GST fusion
- binding of [^32 P]PI(3,4,5)P3 by GST fusion protein [3]: negligible

B3: GRP PH domain: GST fusion protein containing residues 239 to 399 (PH domain) (protein)
chain: T1 sequence (O08967 239-399)
modifications: GST fusion partner
- binding of [^32 P]PI(3,4,5)P3 by GST fusion protein [3]: extensive binding
- ARF1 guanine nucleotide exchange [4]: no effect

B4: GRP Sec7 domain: GST fusion protein containing residues 52 to 260 (Sec7 domain) (protein, UniProt O08967 52-260, looked up, fragment)
chain: IDNLTSVEESKTTQRNKQIAMGRKKFNMDPKKGIQFLIENDLLQSSPEDVAQFLYKGEGLNKTVIGDYLGERDDFNIKVLQAFVELHEFADLNLVQALRQFLWSFRLPGEAQKIDRMMEAFASRYCLCNPGVFQSTDTCYVLSFAIIMLNTSLHNHNVRDKPTAERFITMNRGINEGGDLPEELLRNLYESIKNEPFKIPEDDGNDLTH
modifications: Sec7 domain GST fusion
- binding of [^32 P]PI(3,4,5)P3 by GST fusion protein [3]: No significant binding
- ARF1 guanine nucleotide exchange [4]: high activity
- ARF1 guanine nucleotide exchange ([4]; listed as SEC7 homology domain): as effective as the fill length GRP
- ARF1 guanine nucleotide exchange ([4]; listed as Sec 7 domains of GRP): sufficient for catalysis

Continued, values first:

- inhibition of [^32 P]PI(3,4,5)P3 binding to GST-PH(GRP) [1]: markedly inhibited
- IC50 ([1]; 25,000 cpm [^32 P]PI(3,4,5)P3, GST-PH, read-out: concentration that inhibited binding of [^32 p]PI(3,4,5)P3 half maximally): 3 to 6 µM
- binding of inositol phosphate to GRP polypeptides [1]: bind
- inhibition of PtdIns(3,4,5)P3-stimulated GRP-mediated ARF1 guanine nucleotide exchange [2]: virtually ablated
- inhibition of PtdIns(3,4,5)P3-stimulated GRP-mediated ARF1 guanine nucleotide exchange ([2]; listed as Ins(1,3,4,5) tetrakisphosphate): selectively blocked
Molecule: O=P(O)(O)O[C@H]1[C@H](O)[C@@H](OP(=O)(O)O)[C@H](OP(=O)(O)O)[C@@H](OP(=O)(O)O)[C@H]1O [Ins(1,3,4,5)P4, inositol 1,3,4,5-P4]

- inhibition of PtdIns(3,4,5)P3-stimulated GRP-mediated ARF1 guanine nucleotide exchange [2]: failed to inhibit
Molecule: O=P(O)(O)O[C@H]1[C@H](O)[C@@H](O)[C@H](OP(=O)(O)O)[C@@H](OP(=O)(O)O)[C@H]1O [Ins(1,3,4)P3]

- inhibition of [^32 P]PI(3,4,5)P3 binding to GST-PH(GRP) [1]: little or no effect
- binding of inositol phosphate to GRP polypeptides [1]: not
- inhibition of PtdIns(3,4,5)P3-stimulated GRP-mediated ARF1 guanine nucleotide exchange [2]: failed to inhibit
Molecule: O=P(O)(O)O[C@@H]1[C@@H](O)[C@H](OP(=O)(O)O)[C@@H](OP(=O)(O)O)[C@@H](O)[C@H]1OP(=O)(O)O [Ins(1,3,4,6)P4, inositol 1,3,4,6-P4]

- binding of [^32 P]PI(3,4,5)P3 by GST fusion protein [3]: No significant binding
- ARF1 guanine nucleotide exchange [4]: no effect
B2: N-terminus of GRP: GST fusion protein containing residues 5 to 71 (protein, UniProt O08967 5-71, looked up, fragment)
chain: GGGEGGSVPEDLSLEEREELLDIRRRKKELIDDIERLKYEIAEVMTEIDNLTSVEESKTTQRNKQIA
modifications: GST fusion
